Measurements from ChEMBL document CHEMBL1909046, “DrugMatrix in vitro pharmacology data”.

Key:
[1] = target: 5-hydroxytryptamine receptor 6 (Homo sapiens, UniProt P50406); type: cell membranes, HeLa, Membrane; note: in other assays of this panel Not Active means under 50% inhibition at 10 µM
[2] = target: T1, Polyunsaturated fatty acid lipoxygenase ALOX15 (Oryctolagus cuniculus, UniProt P12530); assay: biochemical; type: tissue-based, Reticulocytes; conditions: reticulocytes;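 note: inhibition of 15-lipoxygenase enzyme activity measured with linoleic acid as the substrate; in other assays of this panel Not Active means under 50% inhibition at 10 µM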
T1 sequence (P12530 whole entry): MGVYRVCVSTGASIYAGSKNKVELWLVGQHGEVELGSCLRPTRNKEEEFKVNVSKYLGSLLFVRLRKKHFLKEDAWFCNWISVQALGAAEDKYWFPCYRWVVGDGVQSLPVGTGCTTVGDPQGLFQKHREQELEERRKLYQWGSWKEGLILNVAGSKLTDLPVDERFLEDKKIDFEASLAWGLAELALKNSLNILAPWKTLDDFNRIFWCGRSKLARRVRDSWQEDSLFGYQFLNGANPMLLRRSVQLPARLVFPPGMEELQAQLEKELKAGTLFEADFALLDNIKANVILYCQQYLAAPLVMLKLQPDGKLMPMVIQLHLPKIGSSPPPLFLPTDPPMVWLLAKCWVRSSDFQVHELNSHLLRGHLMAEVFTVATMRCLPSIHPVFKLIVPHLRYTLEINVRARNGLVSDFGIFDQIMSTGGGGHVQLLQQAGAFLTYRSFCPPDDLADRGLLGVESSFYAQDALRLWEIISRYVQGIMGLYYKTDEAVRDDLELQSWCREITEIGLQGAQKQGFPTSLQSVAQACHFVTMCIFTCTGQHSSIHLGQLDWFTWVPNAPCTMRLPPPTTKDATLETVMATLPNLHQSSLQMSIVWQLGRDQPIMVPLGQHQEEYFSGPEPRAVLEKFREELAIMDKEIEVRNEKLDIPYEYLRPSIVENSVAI

[3] = DRUGMATRIX: Nicotinic Acetylcholine radioligand binding (ligand: [125I] Epibatidine); type: cell membranes, Membrane; conditions: imr-32; Not Active = under 50% inhibition at 10 µM
Mu-type opioid receptor = Mu-type opioid receptor (Homo sapiens, UniProt P35372); assay: DRUGMATRIX: Opiate mu (OP3, MOP) radioligand binding (ligand: [3H] Diprenorphine); type: cell membranes, CHO-K1, Membrane; conditions: cho-k1; Not Active = under 50% inhibition at 10 µM
Mu-type opioid receptor, sequence (P35372 whole entry): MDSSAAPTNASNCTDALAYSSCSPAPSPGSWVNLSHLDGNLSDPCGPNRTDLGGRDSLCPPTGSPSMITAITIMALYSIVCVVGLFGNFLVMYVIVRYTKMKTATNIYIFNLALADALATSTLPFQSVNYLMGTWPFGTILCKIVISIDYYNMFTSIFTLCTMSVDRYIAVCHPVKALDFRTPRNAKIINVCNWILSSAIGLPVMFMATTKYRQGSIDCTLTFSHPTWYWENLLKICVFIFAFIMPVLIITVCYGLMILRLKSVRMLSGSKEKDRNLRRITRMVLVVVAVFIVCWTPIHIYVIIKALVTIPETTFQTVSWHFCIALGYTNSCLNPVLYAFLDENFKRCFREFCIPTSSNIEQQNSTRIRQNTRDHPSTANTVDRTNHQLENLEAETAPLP

[4] = target: Platelet-activating factor receptor (Homo sapiens, UniProt P25105); type: tissue-based; note: in other assays of this panel Not Active means under 50% inhibition at 10 µM
Platelet-activating factor receptor, sequence (P25105 whole entry): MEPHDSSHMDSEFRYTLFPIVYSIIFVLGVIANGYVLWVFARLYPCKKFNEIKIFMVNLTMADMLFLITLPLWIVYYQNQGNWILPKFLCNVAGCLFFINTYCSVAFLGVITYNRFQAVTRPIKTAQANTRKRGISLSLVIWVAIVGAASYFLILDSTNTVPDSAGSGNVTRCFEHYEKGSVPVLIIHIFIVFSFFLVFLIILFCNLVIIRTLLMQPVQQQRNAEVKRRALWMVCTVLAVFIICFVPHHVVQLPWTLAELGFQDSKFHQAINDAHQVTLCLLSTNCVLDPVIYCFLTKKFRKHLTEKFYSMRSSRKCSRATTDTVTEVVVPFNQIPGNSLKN

[5] = target: Mitogen-activated protein kinase 14 (Homo sapiens, UniProt Q16539); design: species or system Escherichia coli;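 note: inhibition of p38alpha enzyme activity in a biochemical kinase assay, with myelin basic protein serving as substrate; in other assays of this panel Not Active means under 50% inhibition at 10 µM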
Mitogen-activated protein kinase 14, sequence (Q16539 whole entry): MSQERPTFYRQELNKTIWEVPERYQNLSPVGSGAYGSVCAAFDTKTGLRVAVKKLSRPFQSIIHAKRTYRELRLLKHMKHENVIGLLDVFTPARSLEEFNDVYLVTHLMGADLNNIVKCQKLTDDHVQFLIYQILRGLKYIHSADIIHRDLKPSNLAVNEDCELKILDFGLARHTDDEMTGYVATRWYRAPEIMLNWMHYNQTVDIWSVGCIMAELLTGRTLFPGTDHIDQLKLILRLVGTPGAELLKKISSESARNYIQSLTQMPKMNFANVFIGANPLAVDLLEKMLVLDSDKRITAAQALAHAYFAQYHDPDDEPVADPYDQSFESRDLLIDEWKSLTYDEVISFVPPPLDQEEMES

Glucocorticoid receptor = target: T2, Glucocorticoid receptor (Homo sapiens, UniProt P04150); conditions: hela s3; note: in other assays of this panel Not Active means under 50% inhibition at 10 µM
T2 sequence (P04150 whole entry): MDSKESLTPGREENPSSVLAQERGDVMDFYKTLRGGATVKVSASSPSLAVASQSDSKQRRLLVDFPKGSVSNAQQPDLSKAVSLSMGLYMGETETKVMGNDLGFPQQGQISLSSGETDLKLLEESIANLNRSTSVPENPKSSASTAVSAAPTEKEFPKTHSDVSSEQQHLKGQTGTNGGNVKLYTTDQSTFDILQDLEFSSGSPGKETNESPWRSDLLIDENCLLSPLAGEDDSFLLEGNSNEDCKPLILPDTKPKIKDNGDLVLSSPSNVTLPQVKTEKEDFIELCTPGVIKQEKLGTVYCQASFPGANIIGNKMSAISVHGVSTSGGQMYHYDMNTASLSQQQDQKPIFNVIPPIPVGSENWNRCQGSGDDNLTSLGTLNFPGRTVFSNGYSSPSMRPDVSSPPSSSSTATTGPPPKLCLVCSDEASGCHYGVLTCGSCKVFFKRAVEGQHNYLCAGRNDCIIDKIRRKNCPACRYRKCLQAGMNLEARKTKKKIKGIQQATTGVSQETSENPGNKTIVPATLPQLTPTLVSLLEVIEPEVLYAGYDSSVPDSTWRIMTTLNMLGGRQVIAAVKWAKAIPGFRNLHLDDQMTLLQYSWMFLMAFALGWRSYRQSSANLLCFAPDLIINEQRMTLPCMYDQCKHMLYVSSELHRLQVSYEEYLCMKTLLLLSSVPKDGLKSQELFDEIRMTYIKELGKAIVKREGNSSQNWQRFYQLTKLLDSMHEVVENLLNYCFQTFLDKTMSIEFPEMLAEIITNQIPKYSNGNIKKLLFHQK

5-hydroxytryptamine receptor 6, sequence (P50406 whole entry): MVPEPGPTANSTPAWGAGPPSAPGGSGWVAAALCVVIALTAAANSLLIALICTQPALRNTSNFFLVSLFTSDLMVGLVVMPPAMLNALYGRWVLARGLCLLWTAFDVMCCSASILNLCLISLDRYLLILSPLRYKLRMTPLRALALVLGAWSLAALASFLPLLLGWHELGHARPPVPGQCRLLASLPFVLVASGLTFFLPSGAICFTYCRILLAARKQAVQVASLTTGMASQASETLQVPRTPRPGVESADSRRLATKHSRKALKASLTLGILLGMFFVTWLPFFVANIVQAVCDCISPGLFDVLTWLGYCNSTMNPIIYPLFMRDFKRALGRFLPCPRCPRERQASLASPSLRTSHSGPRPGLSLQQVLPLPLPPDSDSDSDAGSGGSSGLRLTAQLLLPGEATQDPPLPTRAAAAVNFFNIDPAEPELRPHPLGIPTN

| SMILES | IC50 ([1]; hela) | IC50 [2] | IC50 [3] | Ki [3] | IC50 (Mu-type opioid receptor) | IC50 [4] | IC50 [5] | IC50 (Glucocorticoid receptor) | IC50 ([1]; read-out: IC50) [nM] | Ki ([1]; read-out: Ki) [nM] |
| --- | --- | --- | --- | --- | --- | --- | --- | --- | --- | --- |
| CCc1ccc(CCOc2ccc(CC3SC(=O)NC3=O)cc2)nc1 (centres undefined) [PIOGLITAZONE] | Not Active | Not Active | Not Active | Not Active | Not Active | Not Active | Not Active | Not Active | – | – |
| CN1CCN(C(c2ccccc2)c2ccccc2)CC1 [CYCLIZINE] | Not Active | Not Active | Not Active | Not Active | Not Active | Not Active | Not Active | Not Active | – | – |
| Cn1c(=O)c2c(ncn2C)n(C)c1=O [CAFFEINE] | Not Active | Not Active | Not Active | Not Active | Not Active | Not Active | Not Active | Not Active | – | – |
| COc1cc(OC)c(C(=O)CCCN2CCCC2)c(OC)c1 [BUFLOMEDIL] | Not Active | Not Active | Not Active | Not Active | Not Active | Not Active | Not Active | Not Active | – | – |
| CN1CCC(=C2c3ccccc3CC(=O)c3sccc32)CC1 [KETOTIFEN] | – | Not Active | Not Active | Not Active | Not Active | Not Active | Not Active | Not Active | 1140 | 530 |
| NC12CC3CC(CC(C3)C1)C2 [AMANTADINE] | Not Active | Not Active | Not Active | Not Active | Not Active | Not Active | Not Active | Not Active | – | – |
